Assay results: US11918592B2, “Inhibitors of cyclin dependent kinase 7 (CDK7)” (Syros Pharmaceuticals, Inc., priority 2018, dated 2024)
pIC50: −log10 of the molar value. Like-named read-outs stand apart in the source and are kept apart here.

Columns and labels:
CDK2/Cyclin E1 complex = CDK2/Cyclin E1 complex (Homo sapiens, UniProt P24941); assay: CDK2 kinase inhibition assay (Caliper/LabChip EZ Reader)
[1] = molecular target: CDK7/Cyclin H/MAT1 complex (Homo sapiens, UniProt P50613); assay: CDK7 kinase inhibition assay (Caliper/LabChip EZ Reader)
Sequence of CDK7/Cyclin H/MAT1 complex (P50613 whole entry): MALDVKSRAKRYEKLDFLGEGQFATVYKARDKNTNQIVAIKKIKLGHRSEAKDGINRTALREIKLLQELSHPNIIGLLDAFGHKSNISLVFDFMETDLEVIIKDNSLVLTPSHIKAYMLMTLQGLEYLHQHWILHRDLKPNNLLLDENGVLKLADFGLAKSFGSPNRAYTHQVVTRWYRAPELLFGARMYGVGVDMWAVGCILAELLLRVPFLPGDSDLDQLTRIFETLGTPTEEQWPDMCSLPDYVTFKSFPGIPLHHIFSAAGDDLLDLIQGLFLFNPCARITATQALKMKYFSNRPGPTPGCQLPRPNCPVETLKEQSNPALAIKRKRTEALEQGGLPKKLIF
Sequence of CDK7/Cyclin H/MAT1 complex (P51946 whole entry partner): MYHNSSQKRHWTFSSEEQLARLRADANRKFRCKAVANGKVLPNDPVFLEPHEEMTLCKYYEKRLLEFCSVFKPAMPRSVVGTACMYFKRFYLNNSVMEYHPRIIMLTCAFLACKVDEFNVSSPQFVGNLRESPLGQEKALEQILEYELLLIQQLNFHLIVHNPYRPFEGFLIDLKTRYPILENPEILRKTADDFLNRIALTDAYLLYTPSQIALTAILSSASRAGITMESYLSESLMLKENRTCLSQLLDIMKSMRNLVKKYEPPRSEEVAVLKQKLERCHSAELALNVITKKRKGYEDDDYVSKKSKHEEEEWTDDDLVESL
Sequence of CDK7/Cyclin H/MAT1 complex (P51948 whole entry partner): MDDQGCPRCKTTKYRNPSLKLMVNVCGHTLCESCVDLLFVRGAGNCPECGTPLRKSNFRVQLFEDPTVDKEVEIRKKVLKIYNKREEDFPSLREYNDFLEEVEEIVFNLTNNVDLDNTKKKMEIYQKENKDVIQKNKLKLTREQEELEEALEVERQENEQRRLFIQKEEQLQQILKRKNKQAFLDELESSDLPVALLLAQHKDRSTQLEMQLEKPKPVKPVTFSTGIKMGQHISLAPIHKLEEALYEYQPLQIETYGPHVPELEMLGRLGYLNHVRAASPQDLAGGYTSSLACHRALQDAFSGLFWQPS

MB453 cells = assay: Inhibition of cell proliferation, CyQUANT Direct, MB453; assay type: cell-based, human; conditions: MB453 triple negative breast cancer cells, 72-hour, read-out: MB 453 proliferation calculated IC50
Experimental: (§1) HCC70 and MB453 cells are cell lines derived from human triple negative breast cancer. COV318 and COV504 cells are cell lines derived from human ovarian cancer. Representative compounds of the invention were tested at different concentrations (from 4 μM to 126.4 pM; 0.5 log serial dilutions) for their ability to inhibit the proliferation of each of these cell lines. Known CDK inhibitors dinaciclib or N-((1S,3R)-3-((5-chloro-4-(1H-indol-3-yl) pyrimidin-2-yl)amino)cyclohexyl)-5-((E)-4-(dimethylamino)but-2-enamido)picolinamide and triptolide were used as positive controls. Cells were seeded at approximately 2,000 cells/well and grown in ATCC-formulated RPMI-1640 Medium (ATCC 30-2001)+10% FBS. The cells were cultured at 37° C. in a humidified chamber in the presence of 5% CO2. Proliferation assays were conducted over a 72-hour time period. CyQUANT® Direct Cell Proliferation Assay (Life Technologies, Chicago, IL USA) was used to assess the anti-proliferative effects of the compounds following manufacturer's directions and utilizing the reagents supplied with the CyQUANT® Direct Cell kit.

COV318 cells = assay: Inhibition of cell proliferation, CyQUANT Direct, COV318; assay type: cell-based; conditions: Homo sapiens; COV318 ovarian cancer cells, 72-hour; read-out: COV 318 proliferation calculated IC50
Experimental: as §1

CDK9/Cyclin T1 complex = CDK9/Cyclin T1 complex (Homo sapiens, UniProt P50750); assay: CDK9 kinase inhibition assay (Caliper/LabChip EZ Reader)
Sequence of CDK9/Cyclin T1 complex (P50750 whole entry): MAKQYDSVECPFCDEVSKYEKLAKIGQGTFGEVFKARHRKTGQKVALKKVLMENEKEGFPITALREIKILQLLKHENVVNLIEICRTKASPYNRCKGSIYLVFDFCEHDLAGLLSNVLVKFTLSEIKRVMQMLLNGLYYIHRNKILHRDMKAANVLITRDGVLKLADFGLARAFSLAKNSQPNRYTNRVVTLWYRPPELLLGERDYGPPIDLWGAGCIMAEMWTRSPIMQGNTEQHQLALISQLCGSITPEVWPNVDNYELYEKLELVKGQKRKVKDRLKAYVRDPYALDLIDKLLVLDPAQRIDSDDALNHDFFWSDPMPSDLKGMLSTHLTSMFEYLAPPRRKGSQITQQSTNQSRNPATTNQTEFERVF
Sequence of CDK9/Cyclin T1 complex (O60563 whole entry partner): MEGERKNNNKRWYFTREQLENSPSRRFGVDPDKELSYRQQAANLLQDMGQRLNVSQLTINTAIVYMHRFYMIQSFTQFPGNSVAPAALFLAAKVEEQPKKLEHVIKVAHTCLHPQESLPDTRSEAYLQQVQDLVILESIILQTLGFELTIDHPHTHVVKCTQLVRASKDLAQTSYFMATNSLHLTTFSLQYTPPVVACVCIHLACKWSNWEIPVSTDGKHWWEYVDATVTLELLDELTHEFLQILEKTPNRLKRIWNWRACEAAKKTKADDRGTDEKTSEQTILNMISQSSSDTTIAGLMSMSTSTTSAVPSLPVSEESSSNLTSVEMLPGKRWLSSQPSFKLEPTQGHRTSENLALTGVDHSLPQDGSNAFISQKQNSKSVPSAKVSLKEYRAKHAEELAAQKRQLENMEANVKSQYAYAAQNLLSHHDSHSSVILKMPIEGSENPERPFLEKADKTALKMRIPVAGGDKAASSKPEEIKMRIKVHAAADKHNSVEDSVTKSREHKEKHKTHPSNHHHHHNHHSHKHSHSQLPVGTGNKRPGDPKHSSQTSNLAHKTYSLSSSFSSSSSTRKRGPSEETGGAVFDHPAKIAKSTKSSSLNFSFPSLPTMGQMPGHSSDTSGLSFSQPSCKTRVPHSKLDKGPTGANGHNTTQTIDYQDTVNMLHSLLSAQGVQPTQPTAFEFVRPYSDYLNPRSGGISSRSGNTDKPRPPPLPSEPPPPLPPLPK

COV504 cells = assay: Inhibition of cell proliferation, CyQUANT Direct, COV504; assay type: cell-based; conditions: Homo sapiens; COV504 ovarian cancer cells, 72-hour; read-out: COV 504 proliferation calculated IC50
Experimental: as §1

HCC70 cells = assay: Inhibition of cell proliferation, CyQUANT Direct, HCC70; assay type: cell-based, human; conditions: HCC70 triple negative breast cancer cells, 72-hour, read-out: HCC 70 proliferation calculated IC50
Experimental: as §1

[2] = molecular target: CDK12 (aa686-1082)/Cyclin K complex (Homo sapiens, UniProt Q9NYV4); assay: CDK12 kinase inhibition assay (Caliper/LabChip EZ Reader)
Sequence of CDK12 (aa686-1082)/Cyclin K complex (Q9NYV4 686-1082): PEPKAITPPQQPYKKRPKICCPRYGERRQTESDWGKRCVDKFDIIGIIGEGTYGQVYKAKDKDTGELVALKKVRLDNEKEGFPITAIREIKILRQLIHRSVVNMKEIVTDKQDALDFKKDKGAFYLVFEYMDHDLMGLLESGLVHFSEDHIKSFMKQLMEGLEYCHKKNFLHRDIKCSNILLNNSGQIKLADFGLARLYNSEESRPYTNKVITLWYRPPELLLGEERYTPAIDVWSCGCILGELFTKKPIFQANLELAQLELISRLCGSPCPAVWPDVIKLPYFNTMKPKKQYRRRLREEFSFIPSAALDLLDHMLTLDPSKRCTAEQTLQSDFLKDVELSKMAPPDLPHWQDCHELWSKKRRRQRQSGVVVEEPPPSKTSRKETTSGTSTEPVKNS
Sequence of CDK12 (aa686-1082)/Cyclin K complex (O75909 whole entry partner, the tested form may be a part): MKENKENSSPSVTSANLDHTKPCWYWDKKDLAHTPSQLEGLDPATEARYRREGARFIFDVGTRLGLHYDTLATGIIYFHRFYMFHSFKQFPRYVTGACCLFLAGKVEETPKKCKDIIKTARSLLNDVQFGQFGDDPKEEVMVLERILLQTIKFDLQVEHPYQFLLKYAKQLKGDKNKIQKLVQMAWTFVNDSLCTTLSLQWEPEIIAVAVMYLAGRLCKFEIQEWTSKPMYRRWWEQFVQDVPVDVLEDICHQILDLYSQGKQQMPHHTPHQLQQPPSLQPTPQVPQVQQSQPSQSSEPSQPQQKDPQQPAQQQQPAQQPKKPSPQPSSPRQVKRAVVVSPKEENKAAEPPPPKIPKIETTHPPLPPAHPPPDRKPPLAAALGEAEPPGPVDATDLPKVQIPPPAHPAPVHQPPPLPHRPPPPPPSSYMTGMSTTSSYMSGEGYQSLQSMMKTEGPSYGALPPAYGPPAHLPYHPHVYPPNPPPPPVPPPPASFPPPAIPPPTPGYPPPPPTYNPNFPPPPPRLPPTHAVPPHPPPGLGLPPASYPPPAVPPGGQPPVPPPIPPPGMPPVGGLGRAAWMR

| SMILES | pIC50 (CDK2/Cyclin E1 complex) | pIC50 [1] | pIC50 (MB453 cells; Homo sapiens) | pIC50 (COV318 cells) | pIC50 (CDK9/Cyclin T1 complex) | pIC50 (COV504 cells) | pIC50 (HCC70 cells; Homo sapiens) | pIC50 [2] | pIC50 (CDK2/Cyclin E1 complex; read-out: CDK 2 calculated IC50, ATP 2 mM, 27° C., 35 min incubation, 2 mM MgCl2) | pIC50 ([1]; read-out: CDK 7 calculated IC50, ATP 2 mM, 27° C., 35 min incubation, 6 mM MgCl2) | pIC50 (MB453 cells) | pIC50 (CDK9/Cyclin T1 complex; read-out: CDK 9 calculated IC50, ATP 2 mM, 27° C., 15 min incubation, 10 mM MgCl2) | pIC50 (HCC70 cells) | pIC50 ([2]; read-out: CDK 12 calculated IC50, ATP 2 mM, 27° C., 3 hr incubation, 2 mM MgCl2) |
| --- | --- | --- | --- | --- | --- | --- | --- | --- | --- | --- | --- | --- | --- | --- |
| N#Cc1ccc2c(-c3nc(N[C@H]4CNC[C@@H]4c4ccc(Cl)cc4)ncc3C(F)(F)F)c[nH]c2c1 (relative stereo) [Compound 113] | < 6.30 | < 6.30 | < 5.70 | < 5.70 | < 6.30 | 5.70 to 6.30 | < 5.70 | < 6.30 | – | – | – | – | – | – |
| COC1CCN([C@H]2CCC[C@@H]2Nc2ncc(C(F)(F)F)c(-c3c[nH]c4nc(-c5c(C)noc5C)ccc34)n2)C1 (some centres unmarked) [Compound 153] | – | – | 5.70 to 6.30 | < 5.70 | – | 6.30 to 7.00 | 6.30 to 7.00 | – | – | – | – | – | – | – |
| Cc1noc(C)c1-c1ccc2c(-c3nc(N[C@H]4CC[C@@H]4N)ncc3C(F)(F)F)c[nH]c2c1 [Compound 116, (1S,2S)—N2-[4-[6-(3,5-dimethylisoxazol-4-yl)-1H-indol-3-yl]-5-(trifluoromethyl)pyrimidin-2-yl]cyclobutane-1,2-diamine] | < 6.30 | > 7.52 | > 7.00 | 6.30 to 7.00 | < 6.30 | 6.30 to 7.00 | 6.30 to 7.00 | < 6.30 | – | – | – | – | – | – |
| CC(C)N1CC[C@H](Nc2ncc(C(F)(F)F)c(-c3c[nH]c4cc(C#N)ccc34)n2)C1 [Compound 105] | < 6.30 | < 6.30 | < 5.70 | < 5.70 | < 6.30 | < 5.70 | < 5.70 | < 6.30 | – | – | – | – | – | – |
| Cc1noc(C)c1-c1ccc2c(-c3nc(N[C@H]4CCC[C@@H]4N4CC[C@@H](F)C4)ncc3C(F)(F)F)c[nH]c2n1 [Compound 148, 4-[6-(3,5-dimethylisoxazol-4-yl)-1H-pyrrolo[2,3-b]pyridin-3-yl]-N-[(1S,2S)-2-[(3R)-3-fluoropyrrolidin-1-yl]cyclopentyl]-5-(trifluoromethyl)pyrimidin-2-amine] | < 6.30 | > 7.52 | 6.30 to 7.00 | < 5.70 | < 6.30 | > 7.00 | 6.30 to 7.00 | < 6.30 | – | – | – | – | – | – |
| N#Cc1ccc2c(-c3nc(N[C@@H]4CC[C@H]4N4CCCC4)ncc3C(F)(F)F)c[nH]c2c1 [Compound 136, 3-[2-[[(1R,2R)-2-pyrrolidin-1-ylcyclobutyl]-amino]-5-(trifluoromethyl)pyrimidin-4-yl]-1H-indole-6-carbonitrile] | < 6.30 | 6.30 to 7.00 | – | – | < 6.30 | – | – | < 6.30 | – | – | – | – | – | – |
| CP(C)(=O)c1c(C(N)=O)ccc2c(-c3nc(N[C@H]4CCC[C@@H]4N)ncc3C(F)(F)F)c[nH]c12 [Compound 162, 3-[2-[[(1S,2S)-2-aminocyclopentyl]amino]-5(trifluoromethyl)pyrimidin-4-yl]-7-dimethylphosphoryl-1H-indole-6-carboxamide] | < 6.30 | > 7.52 | – | – | < 6.30 | – | – | – | – | – | – | – | – | – |
| Cc1noc(C)c1-c1ccc2c(-c3nc(N[C@@H]4C[C@H]5CC[C@@H]4N5)ncc3C(F)(F)F)c[nH]c2c1 [Compound 138, (1R,2R,4S)—N-[4-[6-(3,5-dimethylisoxazol-4-yl)-1H-indol-3-yl]-5-(trifluoromethyl)pyrimidin-2-yl]-7-azabicyclo-[2.2.1]-heptan-3-amine] | – | – | – | – | – | – | – | – | < 6.30 | 7.00 to 7.52 | 6.30 to 7.00 | < 6.30 | 6.30 to 7.00 | < 6.30 |
| COCCN[C@@H]1CC[C@H]1Nc1ncc(C(F)(F)F)c(-c2c[nH]c3cc(C#N)ccc23)n1 [Compound 134] | < 6.30 | < 6.30 | – | – | < 6.30 | – | – | < 6.30 | – | – | – | – | – | – |
